Patent publication US20170360671A1, “METHOD FOR PREPARING 3,6-ANHYDRO-L-GALACTOSE, AND USE THEREOF” (Korea University Research and Business Foundation, priority 2012, published 2017)

Test system: mushroom-derived tyrosinase
Assay: In vitro (cell-free) tyrosinase activity assay with L-tyrosine as substrate
Type: biochemical
Conditions: 200 μM
Method: The in vitro tyrosinase analyses were performed using a slight modification of the reported method (Ishihara Y et al., The journal of antibiotics (Tokyo) 1991; 44:25-32; An S M, Koh J S, Boo Y C, Phytotherapy Research 2010; 24:1175-1180). In brief, 250 μl of a 0.1M potassium phosphate buffer (pH 6.8) was put into a 24-well plate, and 25 μl of a mushroom-derived tyrosinase (2,000 units/mL), 25 μl of a sample, and 225 μl of distilled water were put into each well. The plate was incubated at 25° C. for 10 minutes, and 25 μl of 1 mM L-tyrosine used as a substrate was added to the wells. Then, the plate was incubated at 25° C. for 10 minutes, and the optical density of each well measured at 475 nm using a microplate reader (Sunrise-Basic Tecan, Austria). Each of the measured values was represented by a variation (%) with respect to the control. L-tyrosine was used as the substrate, and arbutin was used as the positive control. The results were represented by the relative tyrosinase activities to the non-treated control. Next, effects of L-AHG on the tyrosinase activities were examined using a cell-free assay system. Many reports disclosed that the mushroom-derived tyrosinase was primarily used as a model since it was able to be used in the form of a tablet. […] The results were represented by the relative tyrosinase activities to the non-treated control. […]

Structure (SMILES): OC[C@H]1O[C@@H](Oc2ccc(O)cc2)[C@H](O)[C@@H](O)[C@@H]1O [arbutin]
- tyrosinase activities relative to the non-treated control: 40%
